Results: patent publication US11168102B1, “Bicyclic heteroaryl compounds and uses thereof” (Revolution Medicines, Inc., priority 2019, dated 2021)
Like-named read-outs stand apart in the source and are kept apart here.

System: cellular pERK in PC-9 cells (EGFR Ex19Del)
Assay: Potency assay: pERK (AlphaLISA SureFire Ultra p-ERK1/2) in PC-9 cells
Assay type: cell-based
Conditions: PC-9 cells (EGFR Ex19Del), 1 hour incubation, AlphaLISA SureFire Ultra p-ERK1/2, read-out: SOS1 pERK IC50

IC50 (Homo sapiens, PC-9, 1 h) [nM] | IC50 [nM] | Structure (SMILES)
186 |  | COC1(c2cc3c(N[C@H](C)c4cccc(C(F)F)c4F)ncnc3n(C)c2=O)CN(C)C1 [Example 32-8]
16.3 |  | COC1(c2cc3c(N[C@H](C)c4cccc(C(F)F)c4F)ncnc3n(C)c2=O)CCN(C(C)=O)C1 (some centres unmarked) [Example 32-9]
436 |  | COC1(c2cc3c(N[C@H](C)c4cccc(C(F)F)c4F)ncnc3n(C)c2=O)CN(S(C)(=O)=O)C1 [Example 32-10]
34.5 |  | COC1(c2cc3c(N[C@H](C)c4cccc(C(F)F)c4F)ncnc3n(C)c2=O)CCN(C(=O)C2CC2)CC1 [Example 32-11]
28.6 |  | COC1(c2cc3c(N[C@H](C)c4cccc(C(F)F)c4F)ncnc3n(C)c2=O)CCN(C(=O)C2COC2)CC1 [Example 32-12]
44 |  | COCC(=O)N1CCC(OC)(c2cc3c(N[C@H](C)c4cccc(C(F)F)c4F)ncnc3n(C)c2=O)CC1 [Example 32-13]
1310 |  | COC1(c2cc3c(N[C@H](C)c4cccc(C(F)F)c4F)ncnc3n(C)c2=O)C[C@H]2C[C@@H]1CN2C(C)=O (some centres unmarked) [Example 32-14]
49.3 |  | COC1(c2cc3c(N[C@H](C)c4cccc(C(F)F)c4F)ncnc3n(C)c2=O)CC2(CN(C(C)=O)C2)C1 [Example 32-15]
268 |  | CO[C@]1(c2cc3c(N[C@H](C)c4cccc(C(F)F)c4F)ncnc3n(C)c2=O)CCN(S(C)(=O)=O)C1 [Example 32-16]
29.9 |  | CO[C@@]1(c2cc3c(N[C@H](C)c4cccc(C(F)F)c4F)ncnc3n(C)c2=O)CCN(S(C)(=O)=O)C1 [Example 32-17]
947 |  | COC1(c2cc3c(N[C@H](C)c4cccc(C(F)F)c4F)ncnc3n(C)c2=O)C[C@@H]2C[C@H]1CN2C(C)=O (some centres unmarked) [Example 32-18]
11.3 |  | CO[C@]1(c2cc3c(N[C@H](C)c4cccc(C(F)F)c4F)ncnc3n(C)c2=O)CCN(C(C)=O)C1 [Example 32-19]
393 |  | COC1(c2cc3c(N[C@H](C)c4cccc(C(F)F)c4F)ncnc3n(C)c2=O)CC2(CCN(C(C)=O)C2)C1 (some centres unmarked) [Example 32-21]
180 |  | COC1(c2cc3c(N[C@H](C)c4cccc(C(F)F)c4F)ncnc3n(C)c2=O)C2CCC1CN(C(C)=O)C2 (some centres unmarked) [Example 32-22]
52.7 |  | CO[C@@]1(c2cc3c(N[C@H](C)c4cccc(C(F)F)c4F)ncnc3n(C)c2=O)CCN(C(C)=O)C1 [Example 32-23]
69.7 |  | COC1(c2cc3c(N[C@H](C)c4cccc(C(F)F)c4F)ncnc3n(C)c2=O)CCN(S(C)(=O)=O)CC1 [Example 32-24]
1440 |  | COC1(c2cc3c(N[C@H](C)c4cccc(C(F)F)c4F)ncnc3n(C)c2=O)C2CC1CN(C(C)=O)C2 (some centres unmarked) [Example 32-25]
41.8 |  | COC1(c2cc3c(N[C@H](C)c4cccc(C(F)F)c4F)nc(C)nc3n(C)c2=O)CC2(CN(C(C)=O)C2)C1 [Example 32-26]
87.9 |  | C[C@@H](Nc1ncnc2c1cc(C1(OC3CC3)CCS(=O)(=O)CC1)c(=O)n2C)c1cccc(C(F)F)c1F [Example 32-27]
92.1 |  | CO[C@@]1(c2cc3c(N[C@H](C)c4cccc(C(F)F)c4F)ncnc3n(C)c2=O)CCN(C(C)=O)[C@H](C)C1 [Example 32-28]
53.7 |  | COC1(c2cc3c(N[C@H](C)c4cccc(C(F)F)c4F)ncnc3n(C)c2=O)CCN(C(C)=O)C(C)(C)C1 (some centres unmarked) [Example 32-29]
236 |  | CO[C@@]1(c2cc3c(N[C@H](C)c4cccc(C(F)F)c4F)ncnc3n(C)c2=O)CCN(C(C)=O)[C@@H](C)C1 [Example 32-30]
10.1 |  | CO[C@]1(c2cc3c(N[C@H](C)c4cccc(C(F)F)c4F)ncnc3n(C)c2=O)CCN(C(C)=O)[C@@H](C)C1 [Example 32-31]
85.9 |  | COC1(c2cc3c(N[C@H](C)c4cccc(C(F)F)c4F)ncnc3n(C)c2=O)CCCS(=O)(=O)CC1 (some centres unmarked) [Example 32-33]

IC50 (Homo sapiens, PC-9, 1 h) [nM] | IC50 [nM] | Structure (SMILES)
 | 71.1 | COC1(c2cc3c(N[C@H](C)c4cccc(C(F)F)c4F)ncnc3n(C)c2=O)CCCS(=O)(=O)CC1 (some centres unmarked) [Example 32-34]
244 |  | COC1(c2cc3c(N[C@H](C)c4cccc(C(F)F)c4F)ncnc3n(C)c2=O)CCC2CN(C(C)=O)CC21 (some centres unmarked) [Example 32-35]
93.1 |  | COC1(c2cc3c(N[C@H](C)c4cccc(C(F)F)c4F)ncnc3n(C)c2=O)CC2CN(C(C)=O)C2C1 (some centres unmarked) [Example 32-36]
11.8 |  | COC1(c2cc3c(N[C@H](C)c4cccc(C(F)F)c4F)ncnc3n(C)c2=O)C[C@@H](C)N(C(C)=O)C1 (some centres unmarked) [Example 32-37]
172 |  | COC1(c2cc3c(N[C@H](C)c4cccc(C(F)F)c4F)ncnc3n(C)c2=O)C[C@H](C)N(C(C)=O)C1 (some centres unmarked) [Example 32-38]
54.2 |  | COC1(c2cc3c(N[C@H](C)c4cccc(C(F)F)c4F)ncnc3n(C)c2=O)CCCN(C(C)=O)CC1 (some centres unmarked) [Example 32-39]
461 |  | CO[C@]1(c2cc3c(N[C@H](C)c4cccc(C(F)F)c4F)ncnc3n(C)c2=O)C[C@H](N(C)C(C)=O)C1 [Example 32-41]
355 |  | COC1(c2cc3c(N[C@H](C)c4cccc(C(F)F)c4F)ncnc3n(C)c2=O)CCN(C(C)=O)C2(CC2)C1 (some centres unmarked) [Example 32-42]
 | 181 | COC1(c2cc3c(N[C@H](C)c4cccc(C(F)F)c4F)ncnc3n(C)c2=O)CCN(C(C)=O)C2(CC2)C1 (some centres unmarked) [Example 32-43]
32.1 |  | CC(=O)N1CCC(OC2CC2)(c2cc3c(N[C@H](C)c4cccc(C(F)F)c4F)ncnc3n(C)c2=O)CC1 [Example 32-44]
249 |  | COC1(c2cc3c(N[C@H](C)c4cccc(C(F)F)c4F)ncnc3n(C)c2=O)CCP(C)(=O)CC1 (some centres unmarked) [Example 32-45]
 | 148 | COC1(c2cc3c(N[C@H](C)c4cccc(C(F)F)c4F)ncnc3n(C)c2=O)CCP(C)(=O)CC1 (some centres unmarked) [Example 32-46]
77.6 |  | CO[C@]1(c2cc3c(N[C@H](C)c4cccc(C(F)F)c4F)ncnc3n(C)c2=O)C[C@@H](C)N(C(C)=O)C1 [Example 32-47]
5.4 |  | CO[C@@]1(c2cc3c(N[C@H](C)c4cccc(C(F)F)c4F)ncnc3n(C)c2=O)C[C@@H](C)N(C(C)=O)C1 [Example 32-48]
102 |  | CO[C@]1(c2cc3c(N[C@H](C)c4cccc(C(F)F)c4F)ncnc3n(C)c2=O)C[C@H](C)N(C(C)=O)C1 [Example 32-49]
153 |  | CO[C@@]1(c2cc3c(N[C@H](C)c4cccc(C(F)F)c4F)ncnc3n(C)c2=O)C[C@H](C)N(C(C)=O)C1 [Example 32-50]
5.79 |  | CO[C@]1(c2cc3c(N[C@H](C)c4cccc(C(F)F)c4F)ncnc3n(C)c2=O)CCN(C(C)=O)[C@H](C)C1 [Example 32-51]
18.1 |  | CO[C@]1(c2cc3c(N[C@H](C)c4cccc(C(F)F)c4F)ncnc3n(C)c2=O)CCN(C(C)=O)C(C)(C)C1 [Example 32-52]
199 |  | CO[C@@]1(c2cc3c(N[C@H](C)c4cccc(C(F)F)c4F)ncnc3n(C)c2=O)CCN(C(C)=O)C(C)(C)C1 [Example 32-53]
40.2 |  | COCCOC1(c2cc3c(N[C@H](C)c4cccc(C(F)F)c4F)ncnc3n(C)c2=O)CCS(=O)(=O)CC1 [Example 32-54]
81.6 |  | COC1(c2cc3c(N[C@H](C)c4cccc(C(F)F)c4F)ncnc3n(C)c2=O)CCNC1 (some centres unmarked) [Example 32-55]
93.7 |  | COC1(c2cc3c(N[C@H](C)c4cccc(C(F)F)c4F)ncnc3n(C)c2=O)CCOCC1 [Example 32-56]
83.9 |  | C[C@@H](Nc1ncnc2c1cc(C1(OC3COC3)CCS(=O)(=O)CC1)c(=O)n2C)c1cccc(C(F)F)c1F [Example 32-57]
